Laboratory results as given in patent US20150105252A1, “SUBSTITUTED PYRAZOLES AS HERBICIDES” (E I DU PONT DE NEMOURS AND COMPANY, priority 2013, published 2015).

Assays:
[1] = system: canarygrass; assay: Test D postemergence; assay type: in vivo, Phalaris minor; conditions: scale 0 to 100
From the text: (§1) Seeds of plant species selected from bluegrass (annual bluegrass, Poa annua), blackgrass (Alopecurus myosuroides), canarygrass (littleseed canarygrass, Phalaris minor), chickweed (common chickweed, Stellaria media), galium (catchweed bedstraw, Galium aparine), bromegrass, downy (downy bromegrass, Bromus tectorum), field poppy (Papaver rhoeas), field violet (Viola arvensis), foxtail, green (green foxtail, Setaria viridis), deadnettle (henbit deadnettle, Lamium amplexicaule), ryegrass, Italian (Italian ryegrass, Lolium multiflorum), kochia (Kochia scoparia), lambsquarters (Chenopodium album), oilseed rape (Brassica napus), pigweed (redroot pigweed, Amaranthus retroflexus), chamomile (scentless chamomile, Matricaria inodora), speedwell (bird's-eye speedwell, Veronica persica), barley, spring (spring barley, Hordeum vulgare), wheat, spring (spring wheat, Triticum aestivum), buckwheat, wild (wild buckwheat, Polygonum convolvulus), mustard, wild (wild mustard, Sinapis arvensis), oat, wild (wild oat, Avena fatua), radish, wild (wild radish, Raphanus raphanistrum), windgrass (Apera spica-venti), Russian thistle (Salsola kali), barley, winter (winter barley, Hordeum vulgare), and wheat, winter (winter wheat, Triticum aestivum) were planted into a silt loam soil and treated preemergence with test chemicals formulated in a non-phytotoxic solvent mixture which included a surfactant.
(§2) At the same time, these species were planted in pots containing Redi-Earth® planting medium (Scotts Company, 14111 Scottslawn Road, Marysville, Ohio 43041) comprising spaghnum peat moss, vermiculite, wetting agent and starter nutrients and treated with postemergence applications of the test chemicals formulated in the same manner. Plants ranged in height from 2 to 18 cm (1- to 4-leaf stage). Treated plants and controls were maintained in a controlled growth environment for 14 to 21 days after which time all species were compared to controls and visually evaluated. Plant response ratings, summarized in Table D, are based on a scale of 0 to 100 where 0 is no effect and 100 is complete control. A dash (-) response means no test result.

[2] = system: chamomile; assay: Test D preemergence; assay type: in vivo, Matricaria inodora; conditions: for Plant response rating, Chamomile: Preemergence, scale 0 to 100
From the text: as §1, §2

[3] = system: mustard, wild; assay: Test D postemergence; assay type: in vivo, Sinapis arvensis; conditions: scale 0 to 100
From the text: as §1, §2

[4] = system: ryegrass, Italian; assay: Test D postemergence; assay type: in vivo, Lolium multiflorum; conditions: scale 0 to 100
In short: (§3)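 Formulation was a non-phytotoxic solvent mixture plus surfactant, applied either to soil at planting (silt loam, preemergence) or to foliage of 2–18 cm plants (postemergence). Visual evaluation versus controls followed at 14–21 days, scored 0–100.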

[5] = system: barley, winter; assay: Test D preemergence; assay type: in vivo, Hordeum vulgare; conditions: for Plant response rating, Barley, Winter: Preemergence, scale 0 to 100
From the text: as §1, §2

[6] = system: barley, spring; assay: Test D preemergence; assay type: in vivo, Hordeum vulgare; conditions: for Plant response rating, Barley, Spring: Preemergence, scale 0 to 100
From the text: as §1, §2

[7] = system: bromegrass, downy; assay: Test D postemergence; assay type: in vivo, Bromus tectorum; conditions: scale 0 to 100
From the text: as §1, §2

[8] = system: oat, wild; assay: Test D postemergence; assay type: in vivo, Avena fatua; conditions: scale 0 to 100
From the text: as §1, §2

[9] = system: field violet; assay: Test D preemergence; assay type: in vivo, Viola arvensis; conditions: for Plant response rating, Field Violet: Preemergence, scale 0 to 100
From the text: as §1, §2

[10] = system: foxtail, green; assay: Test D postemergence; assay type: in vivo, Setaria viridis; conditions: scale 0 to 100
From the text: as §1, §2

[11] = system: lambsquarters; assay: Test D postemergence; assay type: in vivo, Chenopodium album; conditions: scale 0 to 100
From the text: as §1, §2

[12] = system: oat, wild; assay: Test D preemergence; assay type: in vivo, Avena fatua; conditions: for Plant response rating, Oat, Wild: Preemergence, scale 0 to 100
In short: as §3

[13] = system: kochia; assay: Test D preemergence; assay type: in vivo, Kochia scoparia; conditions: for Plant response rating, Kochia: Preemergence, scale 0 to 100
In short: as §3

[14] = system: mustard, wild; assay: Test D preemergence; assay type: in vivo, Sinapis arvensis; conditions: Preemergence, scale 0 to 100
From the text: as §1, §2

[15] = system: pigweed; assay: Test D preemergence; assay type: in vivo, Amaranthus retroflexus; conditions: for Plant response rating, Pigweed: Preemergence, scale 0 to 100
From the text: as §1, §2

[16] = system: kochia; assay: Test D postemergence; assay type: in vivo, Kochia scoparia; conditions: scale 0 to 100
In short: as §3

[17] = system: buckwheat, wild; assay: Test D postemergence; assay type: in vivo, Polygonum convolvulus; conditions: scale 0 to 100
From the text: as §1, §2

[18] = system: lambsquarters; assay: Test D preemergence; assay type: in vivo, Chenopodium album; conditions: for Plant response rating, Lambsquarters: Preemergence, scale 0 to 100
In short: as §3

[19] = system: bluegrass; assay: Test D preemergence; assay type: in vivo, Poa annua; conditions: for Plant response rating, Bluegrass: Preemergence, scale 0 to 100
From the text: as §1, §2

[20] = system: galium; assay: Test D postemergence; assay type: in vivo, Galium aparine; conditions: scale 0 to 100
From the text: as §1, §2

[21] = 16 g ai/ha, taken as preemergence

CCc1cc(C(=O)NC2CC2)nn1Cc1ccnc(C(F)(F)F)c1 [Compound 76]
Plant response rating, Canarygrass ([1]; Postemergence, 16 g ai/ha): 5
Canarygrass plant response rating ([1]; Postemergence, 31 g ai/ha): 5
Canarygrass plant response rating ([1]; Postemergence, 125 g ai/ha): 10
Canarygrass plant response rating ([1]; Postemergence, 250 g ai/ha): 15
Canarygrass plant response rating ([1]; postemergence, 62 g ai/ha): 10
Plant response rating (scale 0 to 100), Chamomile [2, 21]: 50
Plant response rating, Chamomile ([2]; 31 g ai/ha): 80
Plant response rating, Chamomile ([2]; 62 g ai/ha): 95
Plant response rating, Chamomile ([2]; 125 g ai/ha): 100
Plant response rating, Chamomile ([2]; 250 g ai/ha): 100
Plant response rating, Mustard, Wild ([3]; Postemergence, 16 g ai/ha): 10
Mustard, Wild plant response rating ([3]; Postemergence, 31 g ai/ha): 40
Mustard, Wild plant response rating ([3]; Postemergence, 125 g ai/ha): 100
Mustard, Wild plant response rating ([3]; Postemergence, 250 g ai/ha): 100
Mustard, Wild plant response rating ([3]; postemergence, 62 g ai/ha): 70
Plant response rating, Ryegrass, Italian ([4]; Postemergence, 16 g ai/ha): 0
Ryegrass, Italian plant response rating ([4]; Postemergence, 31 g ai/ha): 0
Ryegrass, Italian plant response rating ([4]; Postemergence, 125 g ai/ha): 5
Ryegrass, Italian plant response rating ([4]; Postemergence, 250 g ai/ha): 10
Ryegrass, Italian plant response rating ([4]; postemergence, 62 g ai/ha): 5
Plant response rating (scale 0 to 100), Barley, Winter [5, 21]: 0
Plant response rating, Barley, Winter ([5]; 31 g ai/ha): 0
Plant response rating, Barley, Winter ([5]; 62 g ai/ha): 15
Plant response rating, Barley, Winter ([5]; 125 g ai/ha): 60
Plant response rating, Barley, Winter ([5]; 250 g ai/ha): 75
Plant response rating (scale 0 to 100), Barley, Spring ([6]; 16 g ai/ha, taken as preemergence, 0 = no effect, 100 = complete control): 0
Plant response rating, Barley, Spring ([6]; 31 g ai/ha): 0
Plant response rating, Barley, Spring ([6]; 62 g ai/ha): 10
Plant response rating, Barley, Spring ([6]; 125 g ai/ha): 65
Plant response rating, Barley, Spring ([6]; 250 g ai/ha): 75
Plant response rating, Bromegrass, Downy ([7]; Postemergence, 16 g ai/ha): 0
Bromegrass, Downy plant response rating ([7]; Postemergence, 31 g ai/ha): 0
Bromegrass, Downy plant response rating ([7]; Postemergence, 125 g ai/ha): 10
Bromegrass, Downy plant response rating ([7]; Postemergence, 250 g ai/ha): 15
Bromegrass, Downy plant response rating ([7]; postemergence, 62 g ai/ha): 5
Plant response rating, Oat, Wild ([8]; Postemergence, 16 g ai/ha): 5
Oat, Wild plant response rating ([8]; Postemergence, 31 g ai/ha): 5
Oat, Wild plant response rating ([8]; Postemergence, 125 g ai/ha): 10
Oat, Wild plant response rating ([8]; Postemergence, 250 g ai/ha): 15
Oat, Wild plant response rating ([8]; postemergence, 62 g ai/ha): 10
Plant response rating (scale 0 to 100), Field Violet [9, 21]: 60
Plant response rating, Field Violet ([9]; 31 g ai/ha): 95
Plant response rating, Field Violet ([9]; 62 g ai/ha): 100
Plant response rating, Field Violet ([9]; 125 g ai/ha): 100
Plant response rating, Field Violet ([9]; 250 g ai/ha): 100
Plant response rating, Foxtail, Green ([10]; Postemergence, 16 g ai/ha): 5
Foxtail, Green plant response rating ([10]; Postemergence, 31 g ai/ha): 35
Foxtail, Green plant response rating ([10]; Postemergence, 125 g ai/ha): 55
Foxtail, Green plant response rating ([10]; Postemergence, 250 g ai/ha): 85
Foxtail, Green plant response rating ([10]; postemergence, 62 g ai/ha): 15
Plant response rating, Lambsquarters ([11]; Postemergence, 16 g ai/ha): 65
Lambsquarters plant response rating ([11]; Postemergence, 31 g ai/ha): 70
Lambsquarters plant response rating ([11]; Postemergence, 125 g ai/ha): 95
Lambsquarters plant response rating ([11]; Postemergence, 250 g ai/ha): 100
Lambsquarters plant response rating ([11]; postemergence, 62 g ai/ha): 75
Plant response rating (scale 0 to 100), Oat, Wild [12, 21]: 0
Plant response rating, Oat, Wild ([12]; 31 g ai/ha): 10
Plant response rating, Oat, Wild ([12]; 62 g ai/ha): 35
Plant response rating, Oat, Wild ([12]; 125 g ai/ha): 90
Plant response rating, Oat, Wild ([12]; 250 g ai/ha): 100
Plant response rating (scale 0 to 100), Kochia [13, 21]: 20
Plant response rating, Kochia ([13]; 31 g ai/ha): 100
Plant response rating, Kochia ([13]; 62 g ai/ha): 100
Plant response rating, Kochia ([13]; 125 g ai/ha): 100
Plant response rating, Kochia ([13]; 250 g ai/ha): 100
Plant response rating, Mustard, Wild ([14]; 31 g ai/ha): 60
Plant response rating, Mustard, Wild ([14]; 62 g ai/ha): 100
Plant response rating, Mustard, Wild ([14]; 125 g ai/ha): 100
Plant response rating, Mustard, Wild ([14]; 250 g ai/ha): 100
Plant response rating (scale 0 to 100), Pigweed [15, 21]: 10
Plant response rating, Pigweed ([15]; 31 g ai/ha): 60
Plant response rating, Pigweed ([15]; 62 g ai/ha): 80
Plant response rating, Pigweed ([15]; 125 g ai/ha): 100
Plant response rating, Pigweed ([15]; 250 g ai/ha): 100
Plant response rating, Kochia ([16]; Postemergence, 16 g ai/ha): 25
Kochia plant response rating ([16]; Postemergence, 31 g ai/ha): 40
Kochia plant response rating ([16]; Postemergence, 125 g ai/ha): 60
Kochia plant response rating ([16]; Postemergence, 250 g ai/ha): 75
Kochia plant response rating ([16]; postemergence, 62 g ai/ha): 50
Plant response rating, Buckwheat, Wild ([17]; Postemergence, 16 g ai/ha): 50
Buckwheat, Wild plant response rating ([17]; Postemergence, 31 g ai/ha): 55
Buckwheat, Wild plant response rating ([17]; Postemergence, 125 g ai/ha): 60
Buckwheat, Wild plant response rating ([17]; Postemergence, 250 g ai/ha): 100
Buckwheat, Wild plant response rating ([17]; postemergence, 62 g ai/ha): 50
Plant response rating (scale 0 to 100), Lambsquarters [18, 21]: 30
Plant response rating, Lambsquarters ([18]; 31 g ai/ha): 70
Plant response rating, Lambsquarters ([18]; 62 g ai/ha): 95
Plant response rating, Lambsquarters ([18]; 125 g ai/ha): 100
Plant response rating, Lambsquarters ([18]; 250 g ai/ha): 100
Plant response rating (scale 0 to 100), Bluegrass [19, 21]: 0
Plant response rating, Bluegrass ([19]; 31 g ai/ha): 0
Plant response rating, Bluegrass ([19]; 62 g ai/ha): 5
Plant response rating, Bluegrass ([19]; 125 g ai/ha): 55
Plant response rating, Bluegrass ([19]; 250 g ai/ha): 100
Plant response rating, Galium ([20]; Postemergence, 16 g ai/ha): 55
Galium plant response rating ([20]; Postemergence, 31 g ai/ha): 70
Galium plant response rating ([20]; Postemergence, 125 g ai/ha): 75
Galium plant response rating ([20]; Postemergence, 250 g ai/ha): 95
Galium plant response rating ([20]; postemergence, 62 g ai/ha): 75
